Here are results for 26 molecules from BindingDB's records for doi:10.1021/jm990041+ (Rhone-Poulenc Rorer, 1999).

The target of experiment [1] is T1, Serine protease 1 (Bos taurus, UniProt P00760).
T1 sequence (P00760 whole entry): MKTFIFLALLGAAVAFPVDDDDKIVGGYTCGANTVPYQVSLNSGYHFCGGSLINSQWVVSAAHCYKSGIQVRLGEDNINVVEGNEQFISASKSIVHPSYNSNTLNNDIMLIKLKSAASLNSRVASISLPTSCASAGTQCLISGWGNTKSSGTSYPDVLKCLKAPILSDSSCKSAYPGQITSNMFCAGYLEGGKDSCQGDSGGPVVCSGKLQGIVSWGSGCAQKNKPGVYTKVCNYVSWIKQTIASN
In words: Enzyme Assay and Determination of the Inhibition Constants.

Experiment [2] addresses Coagulation factor X (Homo sapiens, UniProt P00742). The description is as above.

As a reminder, the Ki is the dissociation constant of the complex between target and ligand, obtained from inhibition or displacement.

Chain of Coagulation factor X (P00742 41-179 limits assumed): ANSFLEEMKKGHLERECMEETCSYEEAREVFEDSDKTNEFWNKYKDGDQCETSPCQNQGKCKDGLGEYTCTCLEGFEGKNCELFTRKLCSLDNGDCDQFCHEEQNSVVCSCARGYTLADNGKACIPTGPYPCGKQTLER
Chain of Coagulation factor X (P00742 235-488 limits assumed): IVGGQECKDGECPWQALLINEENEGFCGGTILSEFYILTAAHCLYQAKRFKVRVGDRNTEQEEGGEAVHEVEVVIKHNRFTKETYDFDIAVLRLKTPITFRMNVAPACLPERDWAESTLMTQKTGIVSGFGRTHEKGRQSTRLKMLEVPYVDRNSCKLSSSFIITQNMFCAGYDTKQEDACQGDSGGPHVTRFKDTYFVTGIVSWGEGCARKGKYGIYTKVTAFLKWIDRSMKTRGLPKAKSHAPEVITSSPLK

In experiment [1] (pH 7.5, 22 °C), `COc1ccc2ccc(S(=O)(=O)N(C)[C@H]3CCN(Cc4cc(C(=N)N)ccc4N)C3=O)cc2c1` [4-amino-3-{[(3S)-3-[(7-methoxynaphthalene-2-)(methyl)sulfonamido]-2-oxopyrrolidin-1-yl]methyl}benzene-1-carboximidamide] yielded a Ki of 189 nM. `COc1ccc2ccc(S(=O)(=O)N[C@H]3CCN(Cc4cc(C(=N)N)ccc4OCC(=O)O)C3=O)cc2c1` [2-(4-carbamimidoyl-2-{[(3S)-3-[(7-methoxynaphthalene-2-)sulfonamido]-2-oxopyrrolidin-1-yl]methyl}phenoxy)acetic acid] had a Ki in experiment [1] (pH 7.5, 22 °C) above 2900 nM.

`Cn1ccnc1-c1ccc(S(=O)(=O)N[C@H]2CCN(Cc3cccc(C(=N)N)c3)C2=O)cc1` [3-{[(3S)-3-{[4-(1-methyl-1H-imidazol-2-yl)benzene]sulfonamido}-2-oxopyrrolidin-1-yl]methyl}benzene-1-carboximidamide] returned an inhibition constant (Ki) in experiment [1] above 2900 nM. In experiment [1] (pH 7.5, 22 °C), `COc1ccc2ccc(S(=O)(=O)N[C@H]3CCN(Cc4ccc(O)c(C(=N)N)c4)C3=O)cc2c1` [2-hydroxy-5-{[(3S)-3-[(7-methoxynaphthalene-2-)sulfonamido]-2-oxopyrrolidin-1-yl]methyl}benzene-1-carboximidamide] displayed an inhibition constant (Ki) above 2900 nM. Molecule `N=C(N)c1cccc(CN2CC[C@H](NS(=O)(=O)c3ccc(-c4ccon4)s3)C2=O)c1` [3-[3-(S)-(5-Isoxazol-3-ylthiophene-2-ylsulfonylamino)-2-oxopyrrolidin-1-ylmethyl]benzamidine] registered an inhibition constant (Ki) in experiment [1] of 1900 nM.

Consider `N=C(N)c1ccc(F)c(CN2CC[C@H](NS(=O)(=O)c3ccc(-c4cccnc4)s3)C2=O)c1` [4-fluoro-3-[((3S)-2-oxo-3-{[(5-pyridin-3-ylthien-2-yl)sulfonyl]amino}pyrrolidin-1-yl)methyl]benzenecarboximidamide], for which the Ki in experiment [1] was above 2900 nM.

The molecule `COc1ccc2ccc(S(=O)(=O)N[C@H]3CCN(Cc4cccc(C(=N)N)c4)C3=O)cc2c1` [3-{[(3S)-3-[(7-methoxynaphthalene-2-)sulfonamido]-2-oxopyrrolidin-1-yl]methyl}benzene-1-carboximidamide] showed a Ki in experiment [1] (pH 7.5, 22 °C) of 853 nM. `N=C(N)c1cccc(CN2CC[C@H](NS(=O)(=O)c3ccc(-c4ccncc4)s3)C2=O)c1` [3-{[(3S)-2-oxo-3-{[5-(pyridin-4-yl)thiophene-2-]sulfonamido}pyrrolidin-1-yl]methyl}benzene-1-carboximidamide] returned a Ki in experiment [1] above 2900 nM. In turn, `COc1ccc2ccc(S(=O)(=O)N[C@H]3CCN(Cc4cc(C(=N)N)ccc4O)C3=O)cc2c1` [4-hydroxy-3-{[(3S)-3-[(7-methoxynaphthalene-2-)sulfonamido]-2-oxopyrrolidin-1-yl]methyl}benzene-1-carboximidamide] returned a Ki in experiment [1] (pH 7.5, 22 °C) of 305 nM.

On to `C[n+]1ccc(-c2ccc(S(=O)(=O)N[C@H]3CCN(Cc4cccc(C(=N)N)c4)C3=O)cc2)cc1` [4-(4-{[(3S)-1-[(3-carbamimidoylphenyl)methyl]-2-oxopyrrolidin-3-yl]sulfamoyl}phenyl)-1-methylpyridin-1-ium], for which the Ki in experiment [1] is above 2900 nM; in experiment [2], above 1000 nM. As to `N=C(N)c1ccc(O)c(CN2CC[C@H](NS(=O)(=O)c3ccc(-c4ccon4)s3)C2=O)c1` [4-hydroxy-3-{[(3S)-3-{[5-(1,2-oxazol-3-yl)thiophene-2-]sulfonamido}-2-oxopyrrolidin-1-yl]methyl}benzene-1-carboximidamide], the affinity in experiment [1], expressed as Ki, was 2900 nM. For the molecule `N=C(N)c1cccc(CN2CC[C@H](NS(=O)(=O)c3ccc(-c4cc[n+]([O-])cc4)cc3)C2=O)c1` [4-(4-{[(3S)-1-[(3-carbamimidoylphenyl)methyl]-2-oxopyrrolidin-3-yl]sulfamoyl}phenyl)-1-oxidopyridin-1-ium], the Ki in experiment [1] was above 2900 nM. `N=C(N)c1ccc(N)c(CN2CC[C@H](NS(=O)(=O)c3ccc(-c4cccnc4)s3)C2=O)c1` [4-amino-3-{[(3S)-2-oxo-3-{[5-(pyridin-3-yl)thiophene-2-]sulfonamido}pyrrolidin-1-yl]methyl}benzene-1-carboximidamide] registered an inhibition constant Ki in experiment [1] of 1500 nM. With `COc1ccc2ccc(S(=O)(=O)N[C@H]3CCN(Cc4cc(C(=N)N)ccc4N)C3=O)cc2c1` [4-amino-3-{[(3S)-3-[(7-methoxynaphthalene-2-)sulfonamido]-2-oxopyrrolidin-1-yl]methyl}benzene-1-carboximidamide], the Ki in experiment [1] (pH 7.5, 22 °C) is 299 nM. The same measure, in the same setting: next, `COc1ccc2ccc(S(=O)(=O)N(C)[C@H]3CCN(Cc4cc(C(=N)N)ccc4NC(C)=O)C3=O)cc2c1` [N-(4-carbamimidoyl-2-{[(3S)-3-[(7-methoxynaphthalene-2-)(methyl)sulfonamido]-2-oxopyrrolidin-1-yl]methyl}phenyl)acetamide]: above 2900 nM. `N=C(N)c1cccc(CN2CC[C@H](NS(=O)(=O)c3ccc(-c4ccncc4)cc3)C2=O)c1` [3-{[(3S)-2-oxo-3-{[4-(pyridin-4-yl)benzene]sulfonamido}pyrrolidin-1-yl]methyl}benzene-1-carboximidamide] showed a Ki in experiment [1] above 2900 nM. In experiment [1], `N=C(N)c1cccc(CN2CC[C@H](NS(=O)(=O)c3ccc(-c4cccnc4)cc3)C2=O)c1` [3-{[(3S)-2-oxo-3-{[4-(pyridin-3-yl)benzene]sulfonamido}pyrrolidin-1-yl]methyl}benzene-1-carboximidamide] showed a Ki above 2900 nM. In experiment [1] (pH 7.5, 22 °C), `COc1ccc2ccc(S(=O)(=O)N(C)[C@H]3CCN(Cc4cccc(C(=N)N)c4)C3=O)cc2c1` [3-{[(3S)-3-[(7-methoxynaphthalene-2-)(methyl)sulfonamido]-2-oxopyrrolidin-1-yl]methyl}benzene-1-carboximidamide] showed a Ki of 704 nM. On to `N=C(N)c1cccc(CN2CC[C@H](NS(=O)(=O)c3ccc(-c4ccccc4)cc3)C2=O)c1` [3-{[(3S)-2-oxo-3-[(4-phenylbenzene)sulfonamido]pyrrolidin-1-yl]methyl}benzene-1-carboximidamide], for which the inhibition constant Ki in experiment [1] (pH 7.5, 22 °C) was above 2900 nM. In experiment [1], `N=C(N)c1cccc(CN2CC[C@H](NS(=O)(=O)c3ccc(-c4cccnc4)s3)C2=O)c1` [3-[2-Oxo-3-(S)-(5-pyridin-3-ylthiophene-2-ylsulfonylamino)-pyrrolidin-1-ylmethyl]benzamidine] showed a Ki above 2900 nM.

The molecule `N=C(N)c1cccc(CN2CC[C@H](NS(=O)(=O)c3ccc(-c4ccccn4)cc3)C2=O)c1` [3-{[(3S)-2-oxo-3-{[4-(pyridin-2-yl)benzene]sulfonamido}pyrrolidin-1-yl]methyl}benzene-1-carboximidamide] showed a Ki in experiment [1] (pH 7.5, 22 °C) above 2900 nM. In experiment [1], `N=C(N)c1cccc(CN2CC[C@H](NS(=O)(=O)c3ccc(-c4ccccn4)s3)C2=O)c1` [3-{[(3S)-2-oxo-3-{[5-(pyridin-2-yl)thiophene-2-]sulfonamido}pyrrolidin-1-yl]methyl}benzene-1-carboximidamide] displayed a Ki of 2100 nM. Take `COc1ccc2ccc(S(=O)(=O)N[C@H]3CCN(Cc4cc(N)cc(C(=N)N)c4)C3=O)cc2c1` [3-Amino-5-[3-(S)-(7-methoxynaphthalen-2-ylsulfonylamino)-2-oxopyrrolidin-1-ylmethyl]benzamidine]: the Ki in experiment [1] (pH 7.5, 22 °C) is above 2900 nM. Consider `N=C(N)c1ccc(N)c(CN2CC[C@H](NS(=O)(=O)c3ccc(-c4ccon4)s3)C2=O)c1` [4-Amino-3-[3-(S)-(5-isoxazol-3-ylthiophene-2-ylsulfonylamino)-2-oxopyrrolidin-1-ylmethyl]benzamidine], for which, in experiment [1], the Ki was 1700 nM. In experiment [1], `COc1nccc(-c2ccc(S(=O)(=O)N[C@H]3CCN(Cc4cccc(C(=N)N)c4)C3=O)s2)n1` [3-{[(3S)-3-{[5-(2-methoxypyrimidin-4-yl)thiophene-2-]sulfonamido}-2-oxopyrrolidin-1-yl]methyl}benzene-1-carboximidamide] displayed a Ki above 2900 nM.

Take `COC(=O)COc1ccc(C(=N)N)cc1CN1CC[C@H](NS(=O)(=O)c2ccc3ccc(OC)cc3c2)C1=O` [methyl 2-(4-carbamimidoyl-2-{[(3S)-3-[(7-methoxynaphthalene-2-)sulfonamido]-2-oxopyrrolidin-1-yl]methyl}phenoxy)acetate]: in experiment [1] (pH 7.5, 22 °C), the affinity, expressed as Ki, was 12 nM.
